Data set [1] deals with T1, glucagon receptor (rat hepatocyte membrane) (Rattus norvegicus, UniProt P30082).
T1 construct: A cell membrane was prepared from the liver of an SD rat; from tissue; host or cells: SD rat liver (cell membrane fraction)
In words: Glucagon receptor binding inhibition. Conditions: SD rat liver cell membrane, 50 pM (3-[125I]iodotyrosyl10)glucagon, 25° C., 120 minutes; read-out: IC50 (nM) Rat, glucagon receptor binding inhibitory activity. The procedure:
The composition of the reaction solution used in the receptor binding inhibition experiment was prepared according to the method described in Bioorg. Med. Chem. Lett., 1992, 12, 915-918, using the following methods. (3-[^125I] iodotyrosyl^10) Glucagon and a rat hepatocyte membrane were obtained or prepared according to the following methods.
(3-[^125I] iodotyrosyl^10)Glucagon was obtained according to the following method at PerkinElmer Co., Ltd (Great Britain). Using a chloramine T method, glucagon (Peptide Institute) was labeled with [^125I], and (3-[^1251] iodotyrosyl ^10)Glucagon was separated using HPLC. Purchased from PerkinElmer Co., Ltd. (Great Britain), was a product obtained by dissolving it in an aqueous solution containing 10 mM citric acid, 5% lactose, 0.2% cysteine HCl, and 0.25% BSA so that the radioactivity was 3.7 MBq/mL at reference date, followed by freeze-drying. The product was re-dissolved in a 0.3-TIU/mL aprotinin aqueous solution so that the radioactivity was 3.7 MBq/mL at reference date, and it was freeze-stored at −15 to −40° C. for use.
A cell membrane was prepared from the liver of an SD rat according to the method described on pages 31 to 33 of Zikken Seibutsugaku Kouza 6, Saibou bunkakuhou (Experimental Biology Lecture 6, Cell Fraction Method) (Maruzen Co., Ltd.). The resulting cell membrane was freeze-stored at −70 to −85° C. for use.
The cell membrane that had been dissolved at room temperature and then suspended using a Physcotron (Microtec Co., Ltd. was added to a 50-mM Tris-HCl buffer (pH 7.2) containing 1 mg/mL BSA (Sigma-Aldrich), 0.1 mg/mL bacitracin (Wako Pure Chemical Industries, Ltd.), 1% DMSO, 0.01% acetic acid, and 50 pM) (3-[^125I] iodotyrosyl^10) Glucagon (pH 7.2) (each value indicating the final concentration and the radioactivity of (3-[^125I] iodotyrosyl^10) Glucagon calculated on the measurement date) to give a total amount of 0.2 mL. The reaction was started and incubation was performed at 25° C. for 120 minutes. The concentration of the cell membrane was adjusted so that 10% of the added)(3-[^1251] iodotyrosyl^100 Glucagon was equal to the total amount of binding.
Using a GF/C filter (Whatman International Ltd., Great Britain) immersed for more than 15 minutes in 0.3% polyethyleneimine (Sigma-Aldrich, Co., LLC), whose pH was adjusted to 7.2 by adding hydrochloric acid, the reaction solution was subjected to suction filtration to recover (3-[^125I] iodotyrosyl)Glucagon bound to the membrane. The filter was washed 3 times with an ice-cooled 50-mM Tris-HCl buffer (pH 7.4), and the radioactivity of the filter was measured by using a γ counter (1470 WIZARD γ-counter)(Wallac). The amount of specific binding was measured by subtracting the amount of nonspecific binding determined in the presence of 10 μM glucagon (Peptide Institute, Inc.) from the total amount of binding.
The amount of specific binding in the absence of a test compound was regarded as 100%, and inhibitions (%) at various concentrations of test compounds were calculated. The concentration at 50% inhibition of binding (IC50) was calculated using a nonlinear least squares method.

For data set [2], the system named is ob/ob mice. The experiment in a line: Combination use with DPPIV inhibitor sitagliptin, postprandial hyperglycemia in ob/ob mice. The format is in vivo. The procedure:
B6.V-Lepob/J (ob/ob) mice and control B6.V-Lepob/J (?/+) mice (male, 6 to 7 weeks old, n=8, Charles River Japan) were used. […] One hour later, liquid food (ensure H, Abbott Japan, Co., Ltd., 1.5 kcal/mL) was orally administered. The blood sugar levels immediately before, and 15, 30, 60, and 90 minutes after administration of the liquid food were measured.

Data set [3] concerns ob/ob mice. The experiment in a line: Combination use with pioglitazone, HbA1c in ob/ob mice. It is filed as in vivo. Particulars: oral. The procedure:
An experiment using the compound of Example 69 and pioglitazone in combination was performed to examine the effect on the HbAlc values in ob/ob mice.
B6.V-Lepob/J (ob/ob) mice and control B6.V-Lepob/J (?/+) mice (male, 6 to 7 weeks old, n=8, Charles River Japan) were used. The compound of Example 69 suspended in 0.5% methyl cellulose (3 mg/kg, twice a day), and pioglitazone (1 mg/kg, once a day) were orally administered repeatedly for 4 weeks singly or in combination.
The effects were compared based on the […] (HbA1c) value, and a diabetes-like state (prolonged hyperglycemic state) was confirmed by HbA1c increase in the ob/ob mice.

Data set [4] concerns ob/ob mice. In words: Blood sugar decrease in ob/ob mice (hyperglycemia and impaired fasting glycemia). It is filed as in vivo. From the text: Effects of the compound of Example 69 on hyperglycemia and impaired fasting glycemia in ob/ob mice, which are type II diabetes models, were examined.
B6.V-Lepob/J (ob/ob) mice and control B6.V-Lepob/J (?/+) mice (male, 6 to 7 weeks old, n=8, Charles River Japan Inc.) were used. To examine the effect on hyperglycemia, feed was removed from the cage at the same time as the start of drug administration, and to examine the effect on impaired fasting glycemia, feed was removed from the cage about 20 hours before the scheduled time of drug administration. Under each experimental condition, the mice were allowed free access to drinking water. 2, 4 and 6 hours after the forced oral administration of the compound (0.01-1.0 mg/kg) of Example 69, which had been suspended in 0.5% methyl cellulose, the blood sugar levels were examined.

Data set [5] relates to ob/ob mice. The experiment in a line: Combination use with metformin, HbA1c in ob/ob mice. Particulars: oral; for HbAlc value: single use, 4 weeks (Example 69 3 mg/kg twice a day; metformin 100 mg/kg twice a day). The format is in vivo. As to the method: An experiment using the compound of Example 69 and metformin in combination was performed to examine the effect on the HbAlc value in ob/ob mice.
B6.V-Lepob/J (ob/ob) mice and control B6.V-Lepob/J (?/+) mice (male, 6 to 7 weeks old, n=8, Charles River Japan) were used. The compound of Example 69 (3 mg/kg, twice a day) suspended in 0.5% methyl cellulose, and metformin (100 mg/kg, twice a day) dissolved in the solvent were orally administered repeatedly for 4 weeks singly or in combination.

Setting [6] is: combination use of Example 69 (0.1 mg/kg) and sitagliptin (5 mg/lm), single oral dose.
The mark [7] stands for this setting: single use, single oral dose (Example 69 0.1 mg/kg; sitagliptin 5 mg/lm) one hour before liquid food.

Each structure is given as a SMILES string. “Also recorded” adds a separate entry of the source. Counter-ions that a name gives are not always drawn.

T1 sequence (P30082 27-485): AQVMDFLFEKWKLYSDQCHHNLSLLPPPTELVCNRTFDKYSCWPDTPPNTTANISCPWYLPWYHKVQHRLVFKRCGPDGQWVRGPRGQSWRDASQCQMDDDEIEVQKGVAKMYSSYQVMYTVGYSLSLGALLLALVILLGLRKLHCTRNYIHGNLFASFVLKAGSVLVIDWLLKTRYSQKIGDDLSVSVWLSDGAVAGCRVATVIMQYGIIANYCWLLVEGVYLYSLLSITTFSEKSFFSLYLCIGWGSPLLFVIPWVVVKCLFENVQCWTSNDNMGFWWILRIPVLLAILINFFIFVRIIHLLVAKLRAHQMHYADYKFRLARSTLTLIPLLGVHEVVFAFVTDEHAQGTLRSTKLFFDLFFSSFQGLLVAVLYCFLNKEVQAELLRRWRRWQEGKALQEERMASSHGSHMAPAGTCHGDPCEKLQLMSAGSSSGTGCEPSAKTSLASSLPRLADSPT

For orientation: IC50 means the point on the concentration scale where inhibition reaches its midpoint. Turning to `C[C@@H](Nc1ccc(-c2ccoc2C(=O)NNC(=O)c2ccc(O)c([N+](=O)[O-])c2)cc1)c1ccc(F)cc1` [Example 76], the 50% inhibitory concentration (IC50) in data set [1] was determined as 5.8 nM.
On to `C[C@H](Nc1ccc(-c2ccoc2C(=O)NNC(=O)c2ccc(O)c([N+](=O)[O-])c2)cc1)C1CCCCC1` [Example 77], for which, in data set [1], the IC50 came out at 0.35 nM.
Same read-out and setting: then `Cc1cccc([C@H](C)Nc2ccc(-c3ccoc3C(=O)NNC(=O)c3ccc(O)c([N+](=O)[O-])c3)cc2)c1` [Example 73], with 0.16 nM.
On the same count and under the same terms, the value for `N#Cc1cc(C(=O)NNC(=O)c2occc2-c2cccc(NC(=O)OCc3ccccc3)c2)ccc1O` [Compound D, reference compound] was 400 nM.
On the same count and under the same terms, then `CC(C)(C)c1ccc(CNc2ccc(-c3ccoc3C(=O)NNC(=O)c3ccc(O)c([N+](=O)[O-])c3)cc2)cc1` [Example 6], with 0.13 nM; and `N#Cc1cc(C(=O)NNC(=O)c2occc2-c2cccc(NC(=O)c3ccccc3)c2)ccc1O` [Compound A, reference compound], with 2800 nM; and `C[C@H](Nc1ccc(-c2ccoc2C(=O)NNC(=O)c2ccc(O)c([N+](=O)[O-])c2)cc1)c1ccccc1` [Example 78], with 0.62 nM.
As to `CC(=O)N(Cc1ccccc1)c1cccc(-c2ccoc2C(=O)NNC(=O)c2ccc(O)c(C#N)c2)c1` [Compound B, reference compound], in data set [1], the IC50 is 1200 nM.
The same measure, in the same setting: then `O=C(NNC(=O)c1occc1-c1ccc(NCc2ccc(OC(F)(F)F)cc2)cc1)c1ccc(O)c([N+](=O)[O-])c1` [Example 7], with 0.34 nM; and `C[C@H](Nc1ccc(-c2ccoc2C(=O)NNC(=O)c2ccc(O)c([N+](=O)[O-])c2)cc1)c1ccc(Cl)cc1` [Example 72], with 0.14 nM; and `N#Cc1cc(C(=O)NNC(=O)c2occc2-c2cccc(N)c2)ccc1O` [Compound E, reference compound], with 9800 nM.
Turning to `Cc1ccc([C@H](C)Nc2ccc(-c3ccoc3C(=O)NNC(=O)c3ccc(O)c([N+](=O)[O-])c3)cc2)cc1` [Example 69], in data set [2] (setting [6]), the “area under the blood concentration-time curve (blood sugar) after liquid food” value is given as “normalized”, the “blood sugar level 15 minutes after the administration of liquid food” value is reported as “normalized” and the hypoglycemia entry was “without causing hypoglycemia”. Further, the “postprandial hyperglycemia inhibitory effect versus the single use of each agent” value in data set [2] (combination use of Example 69 and sitagliptin (FIGS. 1 and 2)) was “extremely stronger postprandial hyperglycemia inhibitory effect”. In data set [2] (setting [7]), the “area under the blood concentration-time curve (blood sugar) after liquid food” value is listed as “normalized” and the “blood sugar increase 15 minutes after the administration of liquid food” value is reported as “could not normalize”. Besides, the “HbA1c reduction effect versus single use” value in data set [3] (combination use of Example 69 (3 mg/kg twice a day) and pioglitazone (1 mg/kg once a day), 4 weeks) was “higher HbA1c reduction effect; also recorded: extremely stronger HbA1c reduction effect”. For the same molecule, in data set [3] (single use, 4 weeks (Example 69 3 mg/kg twice a day; pioglitazone 1 mg/kg once a day)), the HbA1c value entry was “attained HbA1c reduction”. Further, the “duration of the blood sugar decreasing effect” value in data set [4] (high-dose administration, oral) is given as “continued even 6 hours after the administration”. In addition, the “blood sugar level relative to the healthy (control) mouse” value in data set [4] (oral 0.01-1.0 mg/kg) is given as “not reduced to below the level of the healthy mouse”. The “blood sugar decreasing effect at 2 hours after administration” value in data set [4] (oral 0.01-1.0 mg/kg, any dosage, under each experimental condition (hyperglycemia; impaired fasting glycemia)) is reported as “remarkable blood sugar decreasing effect”. The “HbAlc reduction effect versus single use” value in data set [5] (combination use of Example 69 (3 mg/kg twice a day) and metformin (100 mg/kg twice a day), 4 weeks) is listed as “higher HbAlc reduction effect; also recorded: extremely stronger HbAlc reduction effect”. Also, the HbAlc value entry in data set [5] is “HbAlc reduction”. Further, the IC50 in data set [1] amounted to 0.085 nM.
For the molecule `C[C@H](Nc1ccc(-c2ccoc2C(=O)NNC(=O)c2ccc(O)c([N+](=O)[O-])c2)cc1)c1ccc(F)cc1` [Example 68, 3-(4-{[(1S)-1-(4-fluorophenyl)ethyl]amino}phenyl)-2-furan carboxylic acid-2-(4-hydroxy-3-nitrobenzoyl)hydrazide], in data set [1], the IC50 came to 0.11 nM.
As for `Cc1ccc([C@H](C)Nc2ccc(-c3ccoc3C(=O)NNC(=O)c3ccc(O)c([N+](=O)[O-])c3)cc2)cc1C` [Example 71], the IC50 in data set [1] stood at 0.043 nM.
On to `Cc1ccc(C(C)Nc2ccc(-c3ccoc3C(=O)NNC(=O)c3ccc(O)c([N+](=O)[O-])c3)cc2)cc1` (stereo not drawn) [Example 1, 3-(4-{[1-(4-methylphenyl)ethyl]amino}phenyl)-2-furan carboxylic acid-2-(4-hydroxy-3-nitrobenzoyl)hydrazide hydrochloride], for which the IC50 in data set [1] amounted to 0.22 nM.
On to `CN(C)C(=N)N=C(N)N` [metformin, reference compound], for which the HbAlc value result in data set [5] is on record as “HbAlc reduction”.
Turning to `C[C@H](Nc1ccc(-c2ccoc2C(=O)NNC(=O)c2ccc(O)c(C#N)c2)cc1)c1ccc(F)cc1` [Example 79, 3-(4-{[(1S)-1-(4-fluorophenyl)ethyl]amino}phenyl)-2-furan carboxylic acid-2-(3-cyano-4-hydroxybenzoyl)hydrazide], the IC50 in data set [1] worked out at 0.74 nM.
The same measure, in the same setting: then `CC(=O)Nc1cccc(-c2ccoc2C(=O)NNC(=O)c2ccc(O)c(C#N)c2)c1` [Compound C, reference compound], with 340 nM; and `CCc1ccc([C@H](C)Nc2ccc(-c3ccoc3C(=O)NNC(=O)c3ccc(O)c([N+](=O)[O-])c3)cc2)cc1` [Example 70], with 0.13 nM.
The same measure, in the same setting: the value for `Cc1cc([C@H](C)Nc2ccc(-c3ccoc3C(=O)NNC(=O)c3ccc(O)c([N+](=O)[O-])c3)cc2)ccc1Cl` [Example 75] was 0.12 nM.

The values are drawn from US8883824B2, “3-(4-aminophenyl)-2-furancarboxylic acid derivative and pharmaceutically acceptable salt thereof” (Sumitomo Dainippon Pharma Co., Ltd., priority 2009, dated 2014).
